# From ChEMBL document CHEMBL5465560, “Selectivity Literature for EUbOPEN Chemogenomic Library” (2024)
# Key:
# [1] = molecular target: Calcium/calmodulin-dependent protein kinase type II subunit beta (Homo sapiens) (UniProt Q13554); assay: Selectivity interaction (Kinase panel (DSF assay)) EUB0001558a CAMK2B
# [2] = molecular target: T1, Serine/threonine-protein kinase PLK4 (Homo sapiens) (UniProt O00444); details: at 10 µM
# T1 sequence (whole entry): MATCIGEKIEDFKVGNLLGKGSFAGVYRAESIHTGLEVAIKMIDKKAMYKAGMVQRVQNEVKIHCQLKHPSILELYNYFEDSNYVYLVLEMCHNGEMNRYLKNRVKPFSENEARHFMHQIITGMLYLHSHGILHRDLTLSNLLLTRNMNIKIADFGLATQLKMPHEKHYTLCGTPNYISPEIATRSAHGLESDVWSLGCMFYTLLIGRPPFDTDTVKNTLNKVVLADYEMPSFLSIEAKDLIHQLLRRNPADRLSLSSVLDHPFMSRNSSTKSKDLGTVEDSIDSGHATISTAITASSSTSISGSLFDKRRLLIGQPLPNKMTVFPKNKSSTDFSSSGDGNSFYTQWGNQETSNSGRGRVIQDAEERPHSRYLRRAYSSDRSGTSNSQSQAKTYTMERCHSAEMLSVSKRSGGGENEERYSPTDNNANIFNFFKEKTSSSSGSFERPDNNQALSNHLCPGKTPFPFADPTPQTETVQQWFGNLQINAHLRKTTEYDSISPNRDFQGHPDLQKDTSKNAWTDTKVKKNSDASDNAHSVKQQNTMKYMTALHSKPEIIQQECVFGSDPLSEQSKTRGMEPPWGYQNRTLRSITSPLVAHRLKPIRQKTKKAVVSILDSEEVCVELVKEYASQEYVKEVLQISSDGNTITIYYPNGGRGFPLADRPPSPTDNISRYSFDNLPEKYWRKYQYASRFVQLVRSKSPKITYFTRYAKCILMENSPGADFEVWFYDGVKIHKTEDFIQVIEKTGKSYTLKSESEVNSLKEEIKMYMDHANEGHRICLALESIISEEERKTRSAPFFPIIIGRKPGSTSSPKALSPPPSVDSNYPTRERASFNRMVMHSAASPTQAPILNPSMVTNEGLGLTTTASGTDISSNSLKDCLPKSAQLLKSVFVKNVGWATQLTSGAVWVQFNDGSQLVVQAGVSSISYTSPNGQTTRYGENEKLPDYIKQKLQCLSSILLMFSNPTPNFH
# [3] = molecular target: Activated CDC42 kinase 1 (Homo sapiens, UniProt Q07912); assay: Selectivity interaction (KinomeScan (DiscoverX)) EUB0000595a TNK2; details: at 10 µM
# [4] = molecular target: T2, Serine/threonine-protein kinase DCLK2 (Homo sapiens) (UniProt Q8N568); assay: Selectivity interaction (KinomeScan (DiscoverX)) EUB0000655a DCLK2; details: at 10 µM
# T2 sequence (whole entry): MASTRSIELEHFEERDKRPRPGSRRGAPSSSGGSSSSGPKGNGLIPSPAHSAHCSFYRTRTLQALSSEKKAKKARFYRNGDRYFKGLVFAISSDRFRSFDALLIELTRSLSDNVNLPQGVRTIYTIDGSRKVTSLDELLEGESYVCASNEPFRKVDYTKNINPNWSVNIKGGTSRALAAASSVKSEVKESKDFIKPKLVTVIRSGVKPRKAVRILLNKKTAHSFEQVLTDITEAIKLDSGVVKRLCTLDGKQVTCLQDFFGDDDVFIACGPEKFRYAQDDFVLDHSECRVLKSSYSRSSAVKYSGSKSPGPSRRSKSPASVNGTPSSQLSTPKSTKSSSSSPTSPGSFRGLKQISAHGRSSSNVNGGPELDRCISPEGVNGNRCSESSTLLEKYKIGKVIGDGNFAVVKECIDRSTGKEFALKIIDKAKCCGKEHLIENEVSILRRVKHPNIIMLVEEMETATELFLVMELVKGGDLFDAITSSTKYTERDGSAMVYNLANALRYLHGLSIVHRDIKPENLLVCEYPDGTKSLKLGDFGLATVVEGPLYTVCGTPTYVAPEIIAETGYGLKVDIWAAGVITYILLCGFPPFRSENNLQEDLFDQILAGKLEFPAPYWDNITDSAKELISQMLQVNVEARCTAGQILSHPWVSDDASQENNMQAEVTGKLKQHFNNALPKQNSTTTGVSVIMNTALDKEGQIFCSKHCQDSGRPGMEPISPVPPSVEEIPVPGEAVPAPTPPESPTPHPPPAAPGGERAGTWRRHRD
# [5] = molecular target: T3, Serine/threonine-protein kinase TBK1 (Homo sapiens) (UniProt Q9UHD2); assay: Selectivity interaction (KinomeScan (DiscoverX)) EUB0000607a TBK1; details: at 10 µM
# T3 sequence (whole entry): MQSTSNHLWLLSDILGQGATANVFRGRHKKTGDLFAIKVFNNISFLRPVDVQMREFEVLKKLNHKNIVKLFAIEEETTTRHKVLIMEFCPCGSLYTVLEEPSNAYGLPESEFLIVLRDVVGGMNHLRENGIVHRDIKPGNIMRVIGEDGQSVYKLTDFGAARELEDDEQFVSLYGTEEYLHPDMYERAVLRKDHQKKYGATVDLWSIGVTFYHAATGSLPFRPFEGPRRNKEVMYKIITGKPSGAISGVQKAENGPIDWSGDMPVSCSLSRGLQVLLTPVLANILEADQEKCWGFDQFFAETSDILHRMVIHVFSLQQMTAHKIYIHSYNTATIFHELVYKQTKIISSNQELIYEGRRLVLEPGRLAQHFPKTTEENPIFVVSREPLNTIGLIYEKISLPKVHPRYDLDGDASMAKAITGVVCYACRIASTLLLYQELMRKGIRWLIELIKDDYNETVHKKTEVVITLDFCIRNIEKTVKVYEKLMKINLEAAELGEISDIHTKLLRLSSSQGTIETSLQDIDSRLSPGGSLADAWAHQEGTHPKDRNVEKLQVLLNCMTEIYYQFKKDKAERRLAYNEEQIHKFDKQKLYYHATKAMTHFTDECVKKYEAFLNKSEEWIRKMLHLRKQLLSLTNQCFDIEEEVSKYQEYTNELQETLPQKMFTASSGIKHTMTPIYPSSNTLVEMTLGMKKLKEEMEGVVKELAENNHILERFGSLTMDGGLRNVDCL
# Sequence of Calcium/calmodulin-dependent protein kinase type II subunit beta (Homo sapiens) (Q13554 whole entry): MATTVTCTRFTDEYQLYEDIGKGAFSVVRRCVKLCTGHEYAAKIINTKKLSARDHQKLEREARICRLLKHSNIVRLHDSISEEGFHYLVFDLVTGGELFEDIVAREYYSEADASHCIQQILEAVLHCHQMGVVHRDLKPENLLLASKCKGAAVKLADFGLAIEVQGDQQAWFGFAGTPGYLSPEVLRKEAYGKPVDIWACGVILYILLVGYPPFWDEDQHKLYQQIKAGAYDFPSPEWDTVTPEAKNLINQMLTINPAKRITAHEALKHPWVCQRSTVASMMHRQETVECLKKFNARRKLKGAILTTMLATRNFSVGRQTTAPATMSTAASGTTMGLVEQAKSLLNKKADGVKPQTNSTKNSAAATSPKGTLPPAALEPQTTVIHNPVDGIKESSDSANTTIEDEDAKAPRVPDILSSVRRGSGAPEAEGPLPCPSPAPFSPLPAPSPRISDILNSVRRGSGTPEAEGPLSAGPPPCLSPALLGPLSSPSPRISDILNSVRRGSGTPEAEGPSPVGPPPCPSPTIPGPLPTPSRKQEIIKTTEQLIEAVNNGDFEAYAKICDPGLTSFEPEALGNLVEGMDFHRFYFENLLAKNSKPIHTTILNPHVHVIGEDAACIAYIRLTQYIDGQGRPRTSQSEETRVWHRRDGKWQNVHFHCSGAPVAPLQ
# Sequence of Activated CDC42 kinase 1 (Q07912 whole entry, looked up): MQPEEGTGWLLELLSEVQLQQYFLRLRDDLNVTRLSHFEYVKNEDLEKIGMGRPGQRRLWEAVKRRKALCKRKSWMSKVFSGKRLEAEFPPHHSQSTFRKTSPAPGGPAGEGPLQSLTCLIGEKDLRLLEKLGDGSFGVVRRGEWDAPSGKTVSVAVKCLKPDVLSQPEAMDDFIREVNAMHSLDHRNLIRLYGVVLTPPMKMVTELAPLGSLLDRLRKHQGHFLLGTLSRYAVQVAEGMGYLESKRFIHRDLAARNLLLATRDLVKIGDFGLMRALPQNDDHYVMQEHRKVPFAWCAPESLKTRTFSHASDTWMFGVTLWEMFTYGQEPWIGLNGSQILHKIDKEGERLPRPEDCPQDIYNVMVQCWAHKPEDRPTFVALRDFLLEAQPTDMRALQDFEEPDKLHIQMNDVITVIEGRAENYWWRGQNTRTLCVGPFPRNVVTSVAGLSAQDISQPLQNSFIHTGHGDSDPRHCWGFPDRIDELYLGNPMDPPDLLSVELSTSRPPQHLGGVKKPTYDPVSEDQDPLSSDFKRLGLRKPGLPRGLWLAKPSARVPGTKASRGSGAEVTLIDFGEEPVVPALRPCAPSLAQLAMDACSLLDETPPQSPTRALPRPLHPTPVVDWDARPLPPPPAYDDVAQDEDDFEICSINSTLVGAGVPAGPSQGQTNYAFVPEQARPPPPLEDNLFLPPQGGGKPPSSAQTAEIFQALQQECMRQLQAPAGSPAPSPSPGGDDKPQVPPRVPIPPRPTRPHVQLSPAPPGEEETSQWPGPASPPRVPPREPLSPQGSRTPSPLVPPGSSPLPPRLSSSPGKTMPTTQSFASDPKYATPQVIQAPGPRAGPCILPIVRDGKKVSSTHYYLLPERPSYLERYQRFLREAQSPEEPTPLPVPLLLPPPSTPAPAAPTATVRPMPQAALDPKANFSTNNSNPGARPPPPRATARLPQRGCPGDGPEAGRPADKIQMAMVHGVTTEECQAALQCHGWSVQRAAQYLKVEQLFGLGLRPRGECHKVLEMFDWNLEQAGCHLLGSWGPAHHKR
structure (smiles),measurement,setting,value
CC(C)(O)[C@H](F)CN1Cc2cc(NC(=O)c3cnn4cccnc34)c(N3CCOCC3)cc2C1=O,dTM,[1],0.1 K
CCN(CC)CCCCNc1ncc2cc(-c3cc(OC)cc(OC)c3)c(NC(=O)NC(C)(C)C)nc2n1,% of control,[2],100%
COCC(=O)NC/C=C/c1ccc2ncnc(Nc3ccc(Oc4ccc(C)nc4)c(C)c3)c2c1 [CP-724714],% of control,[3],78%
CN(C)CCOc1ccc(-c2nc(-c3ccncc3)c(-c3ccc4c(c3)CC/C4=N\O)[nH]2)cc1,% of control,[4],100%
CNC(=O)Nc1ccc(-c2nc(N3CC4CCC(C3)O4)c3cnn(C4CCC5(CC4)OCCO5)c3n2)cc1,% of control,[5],82%
